Measurements as given in patent publication US10280188B2, “Fluorine-containing bisphosphonic acid derivative and use thereof” (NAGASAKI UNIVERSITY, priority 2015, dated 2019).
Read-outs that look alike come from different tables or passages of the source.

What was measured:
[1] = tested on: human histiocytic tumor cell line U937; test: CD107a expression of Vδ2 positive γδ T cells on compound-treated U937 cells (flow cytometry); type: cell-based; conditions: U937 treated 2 hr; Vδ2 positive γδ T cells from normal adult (1)
Experimental: Furthermore, PE-labeled anti-human CD107a monoclonal antibody (5 μL) was added, and the mixture was incubated at 37° C. for 2 hr. Thereto was added FITC-labeled anti-human Vδ2 monoclonal antibody (2 μL), and the mixture was incubated on ice for 20 min. This was washed 3 times with 2% FCS-added PBS, and suspended in 200 μL of 2% FCS-added PBS.

[2] = tested on: human histiocytic tumor cell line U937; test: Specific cytotoxicity of Vδ2 positive γδ T cells on compound-treated U937 (time-resolved fluorescence)
Experimental: A dilution series of 0 μM, 100 μM, 300 μM, 1000 μM was prepared for ZOLF.
A dilution series of 0 μM, 300 μM, 1000 μM, 3000 μM was prepared for ALEF.
A dilution series of 0 μM, 300 μM, 1000 μM, 3000 μM was prepared for PAMF.
A dilution series of 0 μM, 300 μM, 1000 μM, 3000 μM was prepared for IBAF.

[3] = tested on: Vδ2 positive γδ T cells in peripheral blood mononuclear cells of adult T cell leukemia patients; test: Induction of Vδ2 positive γδ T cell proliferation from peripheral blood mononuclear cells of adult T cell leukemia patients (FACS); type: cell-based, human; conditions: ZOLF-POM 1 μM, cultured 11 days with IL-2
Experimental: (§1) Heparin blood samples (peripheral blood 10 mL) were collected from adult T cell leukemia patients (1), and diluted with 10 mL of PBS. This was overlaid on 20 mL of Ficoll-Paque and subjected to density gradient centrifugation at 600×g for 30 min at room temperature. The layer directly above Ficoll-Paque was recovered, and washed 3 times with PBS to give peripheral blood mononuclear cells. The cells were suspended in 7 mL of Yssel medium, 1 mL therefrom was stained with PE-labeled anti-human CD3 monoclonal antibody and FITC-labeled anti-human Vδ2 monoclonal antibody, and analyzed by flow cytometer. As a result, as shown in the panel on the left side in FIG. 2, Vδ2 positive γδ T cells accounted for 0.75% of lymphocyte gate. […] As a result, as shown in the panel on the right side in FIG. 2, Vδ2 positive γδ T cells accounted for 91.48% of lymphocyte gate.
as §1, with “(2),” for “(1),”, “3,” for “2,”, “1.58%” for “0.75%”, “96.83%” for “91.48%”
Heparin blood samples (peripheral blood 10 mL) were collected from adult T cell leukemia patients (3), and diluted with 10 mL of PBS. […] The cells were suspended in 7 mL of Yssel medium, 1 mL therefrom was stained with PE-labeled anti-human CD3 monoclonal antibody and FITC-labeled anti-human Vδ2 monoclonal antibody, and analyzed by flow cytometer. […]

[4] = tested on: Vδ2 positive γδ T cells in peripheral blood mononuclear cells of lung cancer patients; test: Induction of Vδ2 positive γδ T cell proliferation from peripheral blood mononuclear cells of lung cancer patients (FACS); type: cell-based, human; conditions: ZOLF-POM 1 μM, cultured 11 days with IL-2
Experimental: as §1, with “collected from lung cancer patients (1),” for “collected from adult T cell leukemia patients (1),”, “with 10 ml of PBS.” for “with 10 mL of PBS.”, “in FIG. 5, Vδ2 positive” for “in FIG. 2, Vδ2 positive”, “accounted for 4.14% of lymphocyte” for “accounted for 0.75% of lymphocyte”, “accounted for 98.59% of lymphocyte” for “accounted for 91.48% of lymphocyte”
Heparin blood samples (peripheral blood 10 mL) were collected from lung cancer patients (2), and diluted with 10 mL of PBS. This was overlaid on 20 mL of Ficoll-Paque and subjected to density gradient centrifugation at 600×g for 30 min at room temperature. […] The cells were suspended in 7 mL of Yssel medium, 1 mL therefrom was stained with PE-labeled anti-human CD3 monoclonal antibody and FITC-labeled anti-human Vδ2 monoclonal antibody, and analyzed by flow cytometer. […]

[5] = tested on: human bladder cancer cell line EJ-1; test: Specific cytotoxicity of Vδ2 positive γδ T cells on compound-treated EJ-1 (time-resolved fluorescence); conditions: γδ T cells from normal adult (1), E/T 0:1-40:1
Experimental: Human bladder cancer cell line EJ-1 cells were suspended in RPMI1640 medium at a cell concentration of 1×10^6/mL, and dispensed by 1 mL to a 15 mL conical tube. This was centrifuged at 600×g for 5 min, and the supernatant was removed. […] The compound solutions of the dilution series were added by 1 mL to the cell pellets after removal of the supernatant and incubated at 37° C. for 1 hr 45 min. Thereto was added 10 mM lanthanoid metal chelating agent by 2.5 μL, and the mixture was further incubated for 15 min. These conical tubes were centrifuged at 600×g for 5 min, and the cell pellets were washed 3 times with RPMI1640 medium. Then, the cell pellets were suspended in 5 mL of RPMI1640 medium, 2 mL therefrom was placed in a different conical tube, and 6 mL of RPMI1640 medium was further added. The cell suspension was seeded by 100 μL in a 96 well round bottom plate. Vδ2 positive γδ T cells derived from normal adult (1) were reacted at an effector cell/target cell ratio of 0:1, 5:1, 10:1, 20:1, 40:1, and incubated for 40 min at 37° C. The plate was centrifuged at 600×g for 2 min, 25 μL of culture supernatant was taken, and diluted with 200 μL of europium-added acetate buffer. The mixture was taken by 200 μL, and time-resolved fluorescence was measured.

[6] = tested on: adult T cell leukemia cell line HCT-4; test: Specific cytotoxicity of Vδ2 positive γδ T cells on compound-treated HCT-4 (time-resolved fluorescence); conditions: γδ T cells from adult T cell leukemia patients (4), E/T 1.25:1-80:1, 1 and 10 μM tested
Experimental: Adult T cell leukemia cell line HCT-4 cells were suspended in RPMI1640 medium at a cell concentration of 1×10^6/mL, and dispensed by 1 mL to a 15 mL conical tube. This was centrifuged at 600×g for 5 min, and the supernatant was removed. […] Thereto was added 10 mM lanthanoid metal chelating agent by 2.5 μL, and the mixture was further incubated for 15 min. These conical tubes were centrifuged at 600×g for 5 min, and the cell pellets were washed 3 times with RPMI1640 medium. Then, the cell pellets were suspended in 5 mL of RPMI1640 medium, 2 mL therefrom was placed in a different conical tube, and 6 mL of RPMI1640 medium was further added. The cell suspension was seeded by 100 μL in a 96 well round bottom plate. […] The plate was centrifuged at 600×g for 2 min, 25 μL of culture supernatant was taken, and diluted with 200 μL of europium-added acetate buffer. The mixture was taken by 200 μL, and time-resolved fluorescence was measured.

[7] = U937, γδ T cells from normal adult (1), E/T 0:1-40:1

NCCCC(F)(P(=O)(O)O)P(=O)(O)O [ALEF, 4-amino-1-fluoro-butylidene-1,1-bisphosphonic acid]
compound concentration that induces maximum CD107a expression [1]: several hundred
concentration at which sensitivity to cytotoxicity activity of Vδ2 positive γδ T cells is promoted [2, 7]: at least 300 μM

CCCCCN(C)CCC(F)(P(=O)(O)O)P(=O)(O)O [IBAF, 1-fluoro-3-(methyl(pentyl)amino)propylidene-1,1-bisphosphonic acid]
concentration at which sensitivity to cytotoxicity activity of Vδ2 positive γδ T cells is promoted [2]: at least 300 μM

NCCC(F)(P(=O)(O)O)P(=O)(O)O [PAMF, 3-amino-1-fluoro-propylidene-1,1-bisphosphonic acid]
compound concentration that induces maximum CD107a expression [1]: several hundred
concentration at which sensitivity to cytotoxicity activity of Vδ2 positive γδ T cells is promoted [2, 7]: at least 300 μM

O=P(O)(O)C(F)(Cn1ccnc1)P(=O)(O)O [ZOLF, 1-fluoro-(2-imidazoyl-1-ethylidene)-1,1-bisphosphonic acid]
compound concentration that induces maximum CD107a expression [1]: several hundred

CC(C)(C)C(=O)OCOP(=O)(OCOC(=O)C(C)(C)C)C(F)(Cn1ccnc1)P(=O)(OCOC(=O)C(C)(C)C)OCOC(=O)C(C)(C)C [ZOLF-POM, tetrakispivaloyloxymethyl-1-fluoro-2-(1H-imidazoyl-1-ethylidene)-1,1-bisphosphonate]
Vδ2 positive γδ T cells, proportion of lymphocyte gate ([3]; adult T cell leukemia patient (1), 0.75% before culture): 91.48%
Vδ2 positive γδ T cells, proportion of lymphocyte gate ([3]; adult T cell leukemia patient (2), 1.58% before culture): 96.83%
Vδ2 positive γδ T cells, proportion of lymphocyte gate ([3]; adult T cell leukemia patient (3), 0.49% before culture): 98.29%
Vδ2 positive γδ T cells, proportion of lymphocyte gate ([4]; lung cancer patient (1), 4.14% before culture): 98.59%
Vδ2 positive γδ T cells, proportion of lymphocyte gate ([4]; lung cancer patient (2), 1.95% before culture): 95.72%
compound concentration that induces maximum CD107a expression [1]: about 100 nM
concentration at which sensitivity to cytotoxicity activity of Vδ2 positive γδ T cells is promoted [5]: at least 1.25 μM
concentration at which sensitivity to cytotoxicity activity of Vδ2 positive γδ T cells is promoted [6]: at least 1 μM
